Reference: ChEMBL document CHEMBL1131863, “Synthesis and antibacterial activity of HMR 3647 a new ketolide highly potent against erythromycin-resistant and susceptible pathogens” (1999)
Converted amounts (≈) assume the structure as drawn.

Key:
Format in all cases: functional
Escherichia coli [1] = experiment: The compound was tested in vitro for antibacterial activity against Escherichia coli 250 UCS.
Mus musculus [2] = experiment: The compound was tested in vivo for antibacterial activity against AmpR beta(+) Haemophilus influenza 351RD7 in mice after oral administration
Mus musculus [3] = experiment: The compound was tested in vivo for antibacterial activity against AmpR beta(-) Haemophilus influenza 351TO19 in mice after oral administration
Mus musculus [4] = experiment: The compound was tested in vivo for antibacterial activity against Haemophilus influenza 351GR1 in mice after oral administration
Haemophilus influenzae [5] = experiment: The compound was tested in vitro for antibacterial activity against Haemophilus influenza 351HT3.
Mus musculus [6] = experiment: The compound was tested in vivo for antibacterial activity against constitutively erythromycin resistant Streptococcus pneumoniae 030Cr29 in mice after oral administration
Mus musculus [7] = experiment: The compound was tested in vivo for antibacterial activity against constitutively erythromycin resistant Streptococcus pneumoniae 030MV2 in mice after oral administration
Mus musculus [8] = experiment: The compound was tested in vivo for antibacterial activity against constitutively erythromycin resistant Streptococcus pneumoniae 030SJ1 in mice after oral administration
Mus musculus [9] = experiment: The compound was tested in vivo for antibacterial activity against constitutively erythromycin resistant Streptococcus pneumoniae 030SJ6 in mice after oral administration
Mus musculus [10] = experiment: The compound was tested in vivo for antibacterial activity against erythromycin susceptible Staphylococcus aureus 011UC4 in mice after oral administration
Mus musculus [11] = experiment: The compound was tested in vivo for antibacterial activity against erythromycin susceptible Streptococcus pneumoniae 032UC1 in mice after oral administration
Mus musculus [12] = experiment: The compound was tested in vivo for antibacterial activity against erythromycin susceptible Streptococcus pyogenes 02A1UC1 in mice after oral administration
Mus musculus [13] = experiment: The compound was tested in vivo for antibacterial activity against inducibly erythromycin resistant Streptococcus pneumoniae 030RO1 in mice after oral administration
Staphylococcus aureus [14] = experiment: The compound was tested in vitro for antibacterial activity against erythromycin susceptible Staphylococcus aureus 011UC4.
Staphylococcus aureus [15] = experiment: The compound was tested in vitro for antibacterial activity against inducibly erythromycin resistant Staphylococcus aureus 011GO25i.
Streptococcus pneumoniae [16] = experiment: The compound was tested in vitro for antibacterial activity against constitutively erythromycin resistant Streptococcus pneumoniae 030CR18c.
Streptococcus pneumoniae [17] = experiment: The compound was tested in vitro for antibacterial activity against constitutively erythromycin resistant Streptococcus pneumoniae 030PW23c.
Streptococcus pneumoniae [18] = experiment: The compound was tested in vitro for antibacterial activity against constitutively erythromycin resistant Streptococcus pneumoniae 030SJ1.
Streptococcus pneumoniae [19] = experiment: The compound was tested in vitro for antibacterial activity against erythromycin susceptible Streptococcus pneumoniae 032UC1.
Staphylococcus aureus [20] = experiment: The compound was tested in vitro for antibacterial activity against constitutively erythromycin resistant Staphylococcus aureus 011CB20.
Streptococcus pyogenes [21] = experiment: The compound was tested in vitro for antibacterial activity against erythromycin susceptible Streptococcus pyogenes 02A1UC1.
Streptococcus pneumoniae [22] = experiment: The compound was tested in vitro for antibacterial activity against inducibly erythromycin resistant Streptococcus pneumoniae 030J5i.
Escherichia coli [23] = experiment: The compound was tested in vitro for antibacterial activity against Escherichia coli 250 UCS
Haemophilus influenzae [24] = experiment: The compound was tested in vitro for antibacterial activity against Haemophilus influenza 351HT3
Staphylococcus aureus [25] = experiment: The compound was tested in vitro for antibacterial activity against erythromycin susceptible Staphylococcus aureus 011UC4
Staphylococcus aureus [26] = experiment: The compound was tested in vitro for antibacterial activity against inducibly erythromycin resistant Staphylococcus aureus 011GO25i
Streptococcus pneumoniae [27] = experiment: The compound was tested in vitro for antibacterial activity against constitutively erythromycin resistant Streptococcus pneumoniae 030CR18c
Streptococcus pneumoniae [28] = experiment: The compound was tested in vitro for antibacterial activity against constitutively erythromycin resistant Streptococcus pneumoniae 030PW23c
Streptococcus pneumoniae [29] = experiment: The compound was tested in vitro for antibacterial activity against constitutively erythromycin resistant Streptococcus pneumoniae 030SJ1
Streptococcus pyogenes [30] = experiment: The compound was tested in vitro for antibacterial activity against erythromycin susceptible Streptococcus pyogenes 02A1UC1
Streptococcus pneumoniae [31] = experiment: The compound was tested in vitro for antibacterial activity against inducibly erythromycin resistant Streptococcus pneumoniae 030J5i
Streptococcus pneumoniae [32] = experiment: The compound was tested in vitro for antibacterial activity against erythromycin susceptible Streptococcus pneumoniae 032UC1

SMILES	MIC (Escherichia coli [1]) [µg/mL]	MIC (Haemophilus influenzae [5]) [µg/mL]	MIC (Staphylococcus aureus [14]) [µg/mL]	MIC (Staphylococcus aureus [15]) [µg/mL]	MIC (Streptococcus pneumoniae [16]) [µg/mL]	MIC (Streptococcus pneumoniae [17]) [µg/mL]	MIC (Streptococcus pneumoniae [18]) [µg/mL]	MIC (Streptococcus pneumoniae [19]) [µg/mL]	MIC (Staphylococcus aureus [20]) [µg/mL]	MIC (Streptococcus pyogenes [21]) [µg/mL]	MIC (Streptococcus pneumoniae [22]) [µg/mL]	further results
CC[C@H]1OC(=O)[C@H](C)C(=O)[C@H](C)[C@@H](O[C@@H]2O[C@H](C)C[C@H](N(C)C)[C@H]2O)[C@](C)(OC)C[C@@H](C)C(=O)[C@H](C)[C@H]2N(CCCCn3cnc(-c4cccnc4)c3)C(=O)O[C@]12C [TELITHROMYCIN]	10 (≈ 12.3 µM)	1.2 (≈ 1.48 µM)	0.04 (≈ 0.0493 µM)	0.08 (≈ 0.0985 µM)	0.15 (≈ 0.185 µM)	0.08 (≈ 0.0985 µM)	0.08 (≈ 0.0985 µM)	0.02 (≈ 0.0246 µM)	40 (≈ 49.3 µM)	0.02 (≈ 0.0246 µM)	0.02 (≈ 0.0246 µM)	ED50 (Mus musculus [2]): 57 mg/kg; ED50 (Mus musculus [3]): 40 mg/kg; ED50 (Mus musculus [4]): 68 mg/kg; ED50 (Mus musculus [6]): 4.5 mg/kg; ED50 (Mus musculus [7]): 4 mg/kg; ED50 (Mus musculus [8]): 15 mg/kg; ED50 (Mus musculus [9]): 6.5 mg/kg; ED50 (Mus musculus [10]): 10 mg/kg; ED50 (Mus musculus [11]): 1 mg/kg; ED50 (Mus musculus [12]): 16 mg/kg; ED50 (Mus musculus [13]): 4 mg/kg
CC[C@H]1OC(=O)[C@H](C)C(=O)[C@H](C)[C@@H](O[C@@H]2O[C@H](C)C[C@H](N(C)C)[C@H]2OC(C)=O)[C@](C)(OC)C[C@@H](C)C(=O)/C(C)=C/[C@]1(C)OC(=O)n1ccnc1									40 (≈ 56.7 µM)			MIC (Escherichia coli [23]): 20 µg/mL (≈ 28.3 µM); MIC (Haemophilus influenzae [24]): 2.5 µg/mL (≈ 3.54 µM); MIC (Staphylococcus aureus [25]): 0.08 µg/mL (≈ 0.113 µM); MIC (Staphylococcus aureus [26]): 0.15 µg/mL (≈ 0.213 µM); MIC (Streptococcus pneumoniae [27]): 10 µg/mL (≈ 14.2 µM); MIC (Streptococcus pneumoniae [28]): 10 µg/mL (≈ 14.2 µM); MIC (Streptococcus pneumoniae [29]): 10 µg/mL (≈ 14.2 µM); MIC (Streptococcus pyogenes [30]): 0.02 µg/mL (≈ 0.0283 µM); MIC (Streptococcus pneumoniae [31]): 0.08 µg/mL (≈ 0.113 µM); MIC (Streptococcus pneumoniae [32]): 0.02 µg/mL (≈ 0.0283 µM)
CC[C@H]1OC(=O)[C@H](C)C(=O)[C@H](C)[C@@H](O[C@@H]2O[C@H](C)C[C@H](N(C)C)[C@H]2O)[C@](C)(OC)C[C@@H](C)C(=O)[C@H](C)[C@H]2N(CCCCn3ccc4ccccc43)C(=O)O[C@]12C	10 (≈ 12.8 µM)	0.6 (≈ 0.765 µM)	0.04 (≈ 0.051 µM)	0.08 (≈ 0.102 µM)	2.5 (≈ 3.19 µM)	2.5 (≈ 3.19 µM)	2.5 (≈ 3.19 µM)	0.02 (≈ 0.0255 µM)	40 (≈ 51 µM)	0.02 (≈ 0.0255 µM)	0.08 (≈ 0.102 µM)	
CC[C@H]1OC(=O)[C@H](C)C(=O)[C@H](C)[C@@H](O[C@@H]2O[C@H](C)C[C@H](N(C)C)[C@H]2O)[C@](C)(OC)C[C@@H](C)C(=O)[C@H](C)[C@H]2N(CCCCn3cnc(-c4ccccc4)c3)C(=O)O[C@]12C	40 (≈ 49.3 µM)	2.5 (≈ 3.08 µM)	0.08 (≈ 0.0986 µM)	0.3 (≈ 0.37 µM)	1.2 (≈ 1.48 µM)	20 (≈ 24.7 µM)	2.5 (≈ 3.08 µM)	0.02 (≈ 0.0247 µM)	40 (≈ 49.3 µM)	0.02 (≈ 0.0247 µM)	2.5 (≈ 3.08 µM)	
CC[C@H]1OC(=O)[C@H](C)C(=O)[C@H](C)[C@@H](O[C@@H]2O[C@H](C)C[C@H](N(C)C)[C@H]2O)[C@](C)(OC)C[C@@H](C)C(=O)[C@H](C)[C@H]2N(CCCCn3cnc(-c4ccccc4)n3)C(=O)O[C@]12C	40 (≈ 49.3 µM)	1.2 (≈ 1.48 µM)	0.02 (≈ 0.0246 µM)	0.15 (≈ 0.185 µM)	1.2 (≈ 1.48 µM)	1.2 (≈ 1.48 µM)	0.6 (≈ 0.739 µM)	0.04 (≈ 0.0493 µM)	40 (≈ 49.3 µM)	0.02 (≈ 0.0246 µM)	0.3 (≈ 0.369 µM)	
